Results as given in US20170088520A1, “DEUBIQUITINASE INHIBITORS” (PharmAkea, Inc., priority 2014, published 2017).

Key:
Type in all cases: cell-based
[1] = system: PARP cleavage in cells (NCI-H929, Z138, MM.1S, A-375); experiment: Analysis of PARP cleavage by Western blotting; conditions: compound tested at 5 μM; Western blot
Procedure: (§1) Example B-2: Analysis of Md-1 Expression and PARP Cleavage
(§2) The ability of test compounds to decrease expression of the tumor promoting protein, Mcl-1, and to induce the inactivation/cleavage of the PARP protein is evaluated in cells (NCI-H929, Z138, MM.1S, A-375) by Western blotting. Cells are plated and treated as described in the HA-Ub-VS cell labeling assay (see above). A portion of the cleared lysate (15-50 μl) is run on an SDS-polyacrylamide gel to separate proteins and then transferred to nitrocellulose. After transfer to nitrocellulose, the proteins are detected by probing the blot with anti-Mcl-1 and anti-PARP antibodies followed by secondary antibodies coupled to IRdye 800 and IRdye 680 and visualization and quantitation using a LiCor Odyssey machine. Activity of the test compound is identified as a significant decrease in Mcl-1 expression relative to the vehicle treated cells and to the appearance of a cleaved fragment of PARP relative to the vehicle-treated cells.
(§3) The following compounds were tested in the above assays at 5 μM: […]

[2] = biological target: T1, DUB activity in cells (NCI-H929, Z138, MM.1S, A375) (Homo sapiens, UniProt Q93008); experiment: HA-Ubiquitin-Vinylsulfone (HA-Ub-VS) cell labeling assay; conditions: compound tested at 5 μM; HA-Ub-VS labeling of USP9x in cells
T1 construct: endogenous in cells; host or cells: NCI-H929, Z138, MM.1S, A375
T1 sequence (Q93008 whole entry): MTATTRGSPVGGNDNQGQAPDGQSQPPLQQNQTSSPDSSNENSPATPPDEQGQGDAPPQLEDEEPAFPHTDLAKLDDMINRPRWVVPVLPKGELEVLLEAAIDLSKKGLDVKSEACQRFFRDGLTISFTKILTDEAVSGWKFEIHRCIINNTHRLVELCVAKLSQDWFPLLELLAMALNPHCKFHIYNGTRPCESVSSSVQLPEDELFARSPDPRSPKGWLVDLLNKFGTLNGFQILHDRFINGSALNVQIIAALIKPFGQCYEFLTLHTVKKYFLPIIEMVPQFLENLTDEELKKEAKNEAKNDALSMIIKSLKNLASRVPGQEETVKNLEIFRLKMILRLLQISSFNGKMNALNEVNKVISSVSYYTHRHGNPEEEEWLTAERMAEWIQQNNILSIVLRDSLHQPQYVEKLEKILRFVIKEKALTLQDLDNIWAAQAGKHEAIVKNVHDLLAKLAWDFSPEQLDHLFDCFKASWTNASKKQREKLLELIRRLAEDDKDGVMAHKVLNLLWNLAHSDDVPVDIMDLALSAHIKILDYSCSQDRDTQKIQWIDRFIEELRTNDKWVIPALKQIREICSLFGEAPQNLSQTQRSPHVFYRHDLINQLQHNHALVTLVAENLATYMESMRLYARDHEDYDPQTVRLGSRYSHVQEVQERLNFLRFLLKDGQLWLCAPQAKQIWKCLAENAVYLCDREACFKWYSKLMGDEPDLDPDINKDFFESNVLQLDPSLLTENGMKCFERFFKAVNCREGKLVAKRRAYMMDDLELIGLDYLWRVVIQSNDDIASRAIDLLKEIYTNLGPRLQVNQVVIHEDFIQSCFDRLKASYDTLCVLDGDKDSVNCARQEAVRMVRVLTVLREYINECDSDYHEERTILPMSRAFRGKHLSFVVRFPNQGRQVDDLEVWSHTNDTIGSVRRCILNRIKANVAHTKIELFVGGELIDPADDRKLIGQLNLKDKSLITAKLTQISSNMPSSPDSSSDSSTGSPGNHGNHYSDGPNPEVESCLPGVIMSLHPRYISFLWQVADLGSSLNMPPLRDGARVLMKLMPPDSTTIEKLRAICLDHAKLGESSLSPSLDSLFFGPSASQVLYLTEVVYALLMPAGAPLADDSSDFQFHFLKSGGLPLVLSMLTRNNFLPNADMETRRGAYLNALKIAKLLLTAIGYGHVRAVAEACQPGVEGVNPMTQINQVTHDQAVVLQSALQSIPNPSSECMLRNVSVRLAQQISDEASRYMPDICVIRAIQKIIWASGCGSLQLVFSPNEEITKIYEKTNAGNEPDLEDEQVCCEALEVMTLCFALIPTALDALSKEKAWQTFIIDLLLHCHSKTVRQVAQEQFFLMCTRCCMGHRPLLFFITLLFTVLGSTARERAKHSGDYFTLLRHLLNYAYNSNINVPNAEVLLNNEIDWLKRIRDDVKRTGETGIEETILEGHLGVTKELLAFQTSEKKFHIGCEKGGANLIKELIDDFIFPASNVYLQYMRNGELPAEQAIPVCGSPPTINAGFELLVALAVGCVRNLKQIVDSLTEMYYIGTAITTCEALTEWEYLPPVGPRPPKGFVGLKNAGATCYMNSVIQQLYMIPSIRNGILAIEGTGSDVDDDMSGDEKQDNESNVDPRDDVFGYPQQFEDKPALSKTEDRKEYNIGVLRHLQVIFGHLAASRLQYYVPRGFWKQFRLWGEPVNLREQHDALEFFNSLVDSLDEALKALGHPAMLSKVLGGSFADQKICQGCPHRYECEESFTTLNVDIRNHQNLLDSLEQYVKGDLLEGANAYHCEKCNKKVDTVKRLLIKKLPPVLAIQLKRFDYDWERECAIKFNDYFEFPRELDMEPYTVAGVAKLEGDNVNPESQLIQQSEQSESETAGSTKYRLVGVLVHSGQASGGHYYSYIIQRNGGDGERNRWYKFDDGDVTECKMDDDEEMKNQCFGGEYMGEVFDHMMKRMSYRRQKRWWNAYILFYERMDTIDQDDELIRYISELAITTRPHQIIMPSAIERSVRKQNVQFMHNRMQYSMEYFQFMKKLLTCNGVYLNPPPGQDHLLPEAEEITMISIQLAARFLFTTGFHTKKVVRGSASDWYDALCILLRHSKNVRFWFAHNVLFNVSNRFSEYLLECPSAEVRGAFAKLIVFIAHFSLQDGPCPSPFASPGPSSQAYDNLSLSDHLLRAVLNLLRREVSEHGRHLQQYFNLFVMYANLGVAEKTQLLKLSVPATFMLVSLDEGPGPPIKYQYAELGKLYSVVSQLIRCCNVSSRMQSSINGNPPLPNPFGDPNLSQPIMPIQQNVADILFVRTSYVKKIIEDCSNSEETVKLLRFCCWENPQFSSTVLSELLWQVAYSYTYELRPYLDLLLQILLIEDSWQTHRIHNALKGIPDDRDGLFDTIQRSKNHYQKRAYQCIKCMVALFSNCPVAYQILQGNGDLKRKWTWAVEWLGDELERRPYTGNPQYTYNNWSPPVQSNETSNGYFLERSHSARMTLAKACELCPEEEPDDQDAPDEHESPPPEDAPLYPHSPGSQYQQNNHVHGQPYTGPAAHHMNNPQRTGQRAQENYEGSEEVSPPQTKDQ
Procedure: Example B-1: HA-Ubiqutin-Vinylsulfone (HA-Ub-VS) Cell Labeling
Inhibitition of DUB activity is measured in cells (NCI-H929, Z138, MM.1S, A375) using a hemaglutinin-ubiquitin-vinylsulfone (HA-Ub-VS) labeling assay. Briefly, 1-2×10^6 cells are plated in 12-well plates in 1 ml complete growth media and 250 μl of test compound in 0.5% dimethylsulfoxide (or DMSO control) is added to each well. Plates are incubated at 37° C., 5% CO2 for 2-6 hours before cells are harvested into eppendorf tubes, washed once in PBS and resuspended in 100 μl cold lysis buffer (50 mM Tris pH 8, 150 mM NaCl, 0.5% NP-40, 2 mM phenylmethylsulfonyl fluoride and complete protease inhibitor tablet). Resupended cells are frozen on dry ice, then thawed and incubated on ice for 15 minutes. Tubes are centrifuged for 10 minutes at 14,000 rpm at 4° C. and the cleared supernatants transferred to clean tubes. […] The samples are incubated 15-60 min at 37° C. before the addition of SDS gel loading buffer. Proteins are separated by SDS-PAGE, transferred to nitrocellulose and the blot probed with anti-HA antibody and anti-β-actin antibodies. The HA and β-actin antibodies are detected using secondary antibodies coupled to IRdye 800 or IRdye 680 and visualized and quantitated using the LiCor Odyssey machine.
as §3

[3] = system: Mcl-1 expression in cells (NCI-H929, Z138, MM.1S, A-375); experiment: Analysis of Mcl-1 expression by Western blotting; conditions: compound tested at 5 μM; Western blot
Procedure: as §1, §2, §3

| SMILES | inhibition at 5 µM [2] | PARP cleavage % Inhibition [1] | inhibition at 5 µM [3] |
| --- | --- | --- | --- |
| COc1ccc(C2(NC(=O)/C(C#N)=C/c3cccc(Br)n3)CCCC2)cc1 [Compound 16, (E)-3-(6-Bromopyridin-2-yl)-2-cyano-N-(1-(4-methoxyphenyl)cyclopentyl)acrylamide] | 50 to 75% | A (A is ≧75% inhibition) | 50 to 75% |
| N#C/C(=C\c1ncc(Br)cc1Br)C(=O)NC1(c2ccc(C(F)(F)F)cc2)CCCC1 [Compound 19, (E)-2-Cyano-3-(3,5-dibromopyridin-2-yl)-N-(1-(4-(trifluoromethyl)phenyl)cyclopentyl) acrylamide] | ≥ 75% | A (A is ≧75% inhibition) | ≥ 75% |
| N#C/C(=C\c1ncc(Br)cc1Br)C(=O)NC1(c2cccc(Cl)c2)CCCC1 [Compound 20, (E)-N-(1-(3-Chlorophenyl)cyclopentyl)-2-cyano-3-(3,5-dibromopyridin-2-yl)acrylamide] | ≥ 75% | A (A is ≧75% inhibition) | ≥ 75% |
| N#C/C(=C\c1ncc(Br)cc1Br)C(=O)NC1(c2ccc(F)cc2)CCCC1 [Compound 21, (E)-2-Cyano-3-(3,5-dibromopyridin-2-yl)-N-(1-(4-fluorophenyl)cyclopentyl)acrylamide] | ≥ 75% | A (A is ≧75% inhibition) | ≥ 75% |
| N#C/C(=C\c1ncc(Br)cc1Br)C(=O)NC1(c2ccc(Cl)cc2)CCCC1 [Compound 22, (E)-N-(1-(4-Chlorophenyl)cyclopentyl)-2-cyano-3-(3,5-dibromopyridin-2-yl)acrylamide] | ≥ 75% | A (A is ≧75% inhibition) | ≥ 75% |
| N#C/C(=C\c1ncc(Br)cc1Br)C(=O)NC1(c2ccccc2)CCCCC1 [Compound 23, (E)-2-Cyano-3-(3,5-dibromopyridin-2-yl)-N-(1-phenylcyclohexyl)acrylamide] | ≥ 75% | A (A is ≧75% inhibition) | ≥ 75% |
| N#C/C(=C\c1ncc(Br)cc1Br)C(=O)NC1(c2ccccc2)CCOCC1 [Compound 24, (E)-2-Cyano-3-(3,5-dibromopyridin-2-yl)-N-(4-phenyltetrahydro-2H-pyran-4-yl)acrylamide] | ≥ 75% | A (A is ≧75% inhibition) | 50 to 75% |
| N#C/C(=C\c1ncc(Br)cc1Br)C(=O)NC1(c2ccccc2)CCCCCC1 [Compound 25, (E)-2-Cyano-3-(3,5-dibromopyridin-2-yl)-N-(1-phenylcycloheptyl)acrylamide] | ≥ 75% | A (A is ≧75% inhibition) | ≥ 75% |
| Cc1cccc(C2(NC(=O)/C(C#N)=C/c3ncc(Br)cc3Br)CCCC2)c1 [Compound 26, (E)-2-cyano-3-(3,5-dibromopyridin-2-yl)-N-(1-(m-tolyl)cyclopentyl)acrylamide] | ≥ 75% | A (A is ≧75% inhibition) | ≥ 75% |
| CC(C)(C)c1ccc(C2(NC(=O)/C(C#N)=C/c3ncc(Br)cc3Br)CCCC2)cc1 [Compound 27, (E)-N-(1-(4-(tert-butyl)phenyl)cyclopentyl)-2-cyano-3-(3,5-dibromopyridin-2-yl)acrylamide] | ≥ 75% | A (A is ≧75% inhibition) | ≥ 75% |
| CCOC(=O)c1ccc(-c2ccc(C3(NC(=O)/C(C#N)=C/c4ncc(Br)cc4Br)CCCC3)cc2)cc1 [Compound 32, (E)-ethyl 4′-(1-(2-cyano-3-(3,5-dibromopyridin-2-yl)acrylamido)cyclopentyl)-[1,1′-biphenyl]-4-carboxylate] | < 25% | D (D is <25% inhibition) | < 25% |
| COC(=O)c1ccc(-c2ccc(C3(NC(=O)/C(C#N)=C/c4ncc(Br)cc4Br)CCCC3)cc2)cn1 [Compound 37, (E)-methyl 5-(4-(1-(2-cyano-3-(3,5-dibromopyridin-2-yl)acrylamido)cyclopentyl)phenyl)picolinate] | 50 to 75% | B (B is 50% to 75% inhibition) | 50 to 75% |
| COC(=O)c1cccc(-c2ccc(C3(NC(=O)/C(C#N)=C/c4ncc(Br)cc4Br)CCCC3)cc2)c1 [Compound 38, (E)-methyl 4′-(1-(2-cyano-3-(3,5-dibromopyridin-2-yl)acrylamido)cyclopentyl)-[1,1′-biphenyl]-3-carboxylate] | 50 to 75% | A (A is ≧75% inhibition) | 50 to 75% |
| N#C/C(=C\c1ncc(Br)cc1Br)C(=O)NC1(c2ccc(-c3cccnc3)cc2)CCCC1 [Compound 39, (E)-2-cyano-3-(3,5-dibromopyridin-2-yl)-N-(1-(4-(pyridin-3-yl)phenyl)cyclopentyl)acrylamide] | 50 to 75% | A (A is ≧75% inhibition) | ≥ 75% |
| COC(=O)c1ccc(C2(NC(=O)/C(C#N)=C/c3cccc(Br)n3)CCCC2)cc1 [Compound 41, (E)-methyl 4-(1-(3-(6-bromopyridin-2-yl)-2-cyanoacrylamido)cyclopentyl)benzoate] | 50 to 75% | A (A is ≧75% inhibition) | ≥ 75% |

Continued, in another order:

| inhibition at 5 µM [2] | SMILES | PARP cleavage % Inhibition [1] | inhibition at 5 µM [3] |
| --- | --- | --- | --- |
| 25 to 50% | N#C/C(=C\c1cccc(Br)n1)C(=O)NC1(c2ccccc2)CCCCC1 [Compound 17, (E)-3-(6-Bromopyridin-2-yl)-2-cyano-N-(1-phenylcyclohexyl)acrylamide] | A (A is ≧75% inhibition) | 50 to 75% |
| 50 to 75% | N#C/C(=C\c1cccc(Br)n1)C(=O)NC1(c2ccccc2)CCOCC1 [Compound 18, (E)-3-(6-Bromopyridin-2-yl)-2-cyano-N-(4-phenyltetrahydro-2H-pyran-4-yl)acrylamide] | B (B is 50% to 75% inhibition) | 25 to 50% |
| < 25% | N#C/C(=C\c1cc(Br)ccn1)C(=O)NC1(c2ccccc2)CCCC1 [Compound 28, (E)-3-(4-bromopyridin-2-yl)-2-cyano-N-(1-phenylcyclopentyl)acrylamide] | D (D is <25% inhibition) | < 25% |
| 50 to 75% | N#C/C(=C\c1ccc(Br)cn1)C(=O)NC1(c2ccccc2)CCCC1 [Compound 29, (E)-3-(5-bromopyridin-2-yl)-2-cyano-N-(1-phenylcyclopentyl)acrylamide] | A (A is ≧75% inhibition) | < 25% |
| 25 to 50% | N#C/C(=C\c1cccc(-c2cccnc2)n1)C(=O)NC1(c2ccccc2)CCCC1 [Compound 30, (E)-3-([2,3′-bipyridin]-6-yl)-2-cyano-N-(1-phenylcyclopentyl)acrylamide] | A (A is ≧75% inhibition) | 25 to 50% |
| 25 to 50% | CCOC(=O)c1ccc(-c2cccc(/C=C(\C#N)C(=O)NC3(c4ccccc4)CCCC3)n2)cc1 [Compound 31, (E)-ethyl 4-(6-(2-cyano-3-oxo-3-((1-phenylcyclopentyl)amino)prop-1-en-1-yl)pyridin-2-yl)benzoate] | B (B is 50% to 75% inhibition) | < 25% |
| 50 to 75% | COC(=O)c1cncc(-c2cccc(/C=C(\C#N)C(=O)NC3(c4ccccc4)CCCC3)n2)c1 [Compound 33] | A (A is ≧75% inhibition) | ≥ 75% |
| 50 to 75% | COC(=O)c1cccc(-c2cccc(/C=C(\C#N)C(=O)NC3(c4ccccc4)CCCC3)n2)c1 [Compound 34] | A (A is ≧75% inhibition) | 25 to 50% |
| < 25% | N#C/C(=C\c1cccc(-c2ccc(OCC(=O)O)cc2)n1)C(=O)NC1(c2ccccc2)CCCC1 [Compound 36] | D (D is <25% inhibition) | < 25% |
| < 25% | N#C/C(=C\c1cccc(-c2ccc(CC(=O)O)cc2)n1)C(=O)NC1(c2ccccc2)CCCC1 [Compound 40] | C (C is 25% to 50% inhibition) | < 25% |
